Data: paper PMC8637440, “Structural Modifications Yield Novel Insights Into the Intriguing Pharmacodynamic Potential of Anti-inflammatory Nitro-Fatty Acids” (Frontiers in Pharmacology, 2021)

What was measured:
Nrf-2 = Nrf-2 induction in HCT-116 cells (Western blot and ELISA); type: cell-based, human; conditions: 10 µM, 4 h, HCT-116, Western blot and ELISA
Description: The Nrf-2 and NF-κB transcription factors in the nuclear extracts were detected using an Nrf-2 Transcription Assay Kit (Cayman Chemical, # 600590) and NF-κB (p65 and p50) Transcription Factor Assay Kit (Cayman Chemical, # 10007889 and # 10006912). Prior to assay performance, the nuclear extracts were generated using a Nuclear Extraction Kit (Cayman Chemical, # 10009277). The assay was performed according to the manufacturer’s instructions. For all kits, the nuclear extracts were incubated overnight at 4°C. Development was carried out for 15–20 min or until the wells turned medium to dark blue. Five minutes after the stop solution had been added, the absorbance was read at 450 nm using a plate reader.
HCT-116 and A549 cells were washed with 1× PBS, and cell extracts were generated using a Nuclear Extraction Kit (Cayman Chemical, #10009277) according to the manufacturer’s instructions, whereas whole-cell lysates were obtained using SDS lysis buffer (55.5 mM Tris-HCl pH 6.8, 2.2% SDS, 9% glycerol supplemented with protease (cOmplete® Protease Inhibitor Cocktail, Roche, Mannheim, Germany) and phosphatase (PhosStop® Easy Pack, Roche, Mannheim, Germany) inhibitors. Protein concentrations from the nuclear and cytosolic fractions were determined with a bicinchoninic acid (BCA) protein assay kit (Pierce™, Rockford, Illinois, United States). Cytoplasmic and nuclear extracts (100 µg each) and 30 µg whole-cell lysates were diluted in 5× Laemmli loading dye and denatured for 10 min at 95°C, loaded on a 10% SDS polyacrylamide gel, and separated by gel electrophoresis for 15 min at 80 V followed by 60 min at 120 V. The separated proteins were blotted onto a nitrocellulose membrane (Hybond-C Extra, Amersham Biosciences Ltd., UK) using the Mini Trans-Blot® module (Bio-Rad, Hercules, California, United States) for 90 min at 90 V. The membrane was blocked with Odyssey blocking buffer (Li-Cor Biosciences, Bad Homburg, Germany) or 5% milk powder in TBS-T (Tris Buffered Saline with 0.1% Tween) for 1 h at room temperature (RT). The membranes were incubated with the primary antibodies overnight at 4°C, and then with the secondary antibodies for 1 h at RT. The primary antibodies were diluted 1:1,000 and the secondary antibodies were diluted 1:10,000 to 1:20,000. […]
FIGURE 2 Effects of NFA on Nrf-2 expression in colorectal cancer cells. HCT-116 cells were treated with 10 µM NFA and tBHQ and/or MMF for 4 h, and Nrf-2 levels were analyzed by western blotting and ELISA. […] (B) Nrf-2 expression levels were evaluated with an ELISA after incubation with NFA with different carbon chain lengths and Michael acceptor positions. […]

[1] = target: T1, recombinant firefly luciferase (Photinus pyralis, UniProt P08659); test: Firefly luciferase activity assay; type: biochemical; conditions: 15 min at 37°C
T1 construct: purchased Sigma-Aldrich
Description: Recombinant firefly luciferase (Sigma-Aldrich, St. Louis, Missouri, United States) was diluted to 10^4 U/mg in 1× PBS (phosphate buffered saline) and subsequently incubated with NFA or the substances of interest for 15 min at 37°C. Afterwards, 50 µl per reaction mix was transferred into a white 96-well plate, to which 50 µl/well Dual-Glo® (Promega, Madison, Wisconsin, United States) was added and incubated for another 10 min at 37°C. Luminescence was analyzed with a plate reader.
Suppl. Figure 1: Fatty acids interfere with firefly luciferase making the luc-based assays not suitable for analysis of signaling pathways modulated by NFA. 10 4 units of firefly luciferase were incubated with 1 µM and 10 µM OA or NFA with different carbon chain length (A) and Michael acceptor position (B) for 15 min at 37°C. Firefly activity is presented as percentage of vehicle control (DMSO) mean + SD, n=5. Compared to vehicle control statistical significance was calculated by one-way ANOVA with Bonferroni post-test. P-values of **P ≦0.0021, **** P ≦0.0001 are considered significant. DMSO, dimethyl sulfoxide; 9NOA, 9-nitro oleic acid; NFA, nitro-fatty acids, OA, oleic acid. […]

sEH = target: T2, sEH (Homo sapiens, UniProt P34913); type: biochemical; set-up: purchased Cayman Chemicals #10011671; conditions: 100 nM
T2 sequence (P34913 1-555): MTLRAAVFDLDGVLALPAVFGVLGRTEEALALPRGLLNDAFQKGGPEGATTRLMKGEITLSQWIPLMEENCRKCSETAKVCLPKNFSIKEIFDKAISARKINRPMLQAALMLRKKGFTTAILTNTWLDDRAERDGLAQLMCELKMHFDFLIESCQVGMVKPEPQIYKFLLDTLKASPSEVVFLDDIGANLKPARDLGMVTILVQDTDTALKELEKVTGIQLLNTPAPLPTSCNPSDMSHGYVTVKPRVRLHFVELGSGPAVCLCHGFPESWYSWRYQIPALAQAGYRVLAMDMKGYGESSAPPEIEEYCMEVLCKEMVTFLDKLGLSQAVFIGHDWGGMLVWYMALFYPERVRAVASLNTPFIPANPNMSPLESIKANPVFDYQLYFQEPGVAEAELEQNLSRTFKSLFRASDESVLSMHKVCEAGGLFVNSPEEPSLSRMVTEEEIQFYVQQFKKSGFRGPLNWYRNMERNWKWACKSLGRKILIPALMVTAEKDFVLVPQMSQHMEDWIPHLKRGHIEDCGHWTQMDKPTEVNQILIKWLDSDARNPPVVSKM
Description: FIGURE 3 Effects of NFA on sEH activity. […] Data are the mean ± SEM of n = 3–7. […] The cells were lysed, and hydrolase activity was measured by Epoxy Fluor 7 lysis. […] Statistical significance was calculated by one-way ANOVA with Bonferroni post-test and multiple comparisons against the DMSO control.

T1 sequence (P08659 whole entry): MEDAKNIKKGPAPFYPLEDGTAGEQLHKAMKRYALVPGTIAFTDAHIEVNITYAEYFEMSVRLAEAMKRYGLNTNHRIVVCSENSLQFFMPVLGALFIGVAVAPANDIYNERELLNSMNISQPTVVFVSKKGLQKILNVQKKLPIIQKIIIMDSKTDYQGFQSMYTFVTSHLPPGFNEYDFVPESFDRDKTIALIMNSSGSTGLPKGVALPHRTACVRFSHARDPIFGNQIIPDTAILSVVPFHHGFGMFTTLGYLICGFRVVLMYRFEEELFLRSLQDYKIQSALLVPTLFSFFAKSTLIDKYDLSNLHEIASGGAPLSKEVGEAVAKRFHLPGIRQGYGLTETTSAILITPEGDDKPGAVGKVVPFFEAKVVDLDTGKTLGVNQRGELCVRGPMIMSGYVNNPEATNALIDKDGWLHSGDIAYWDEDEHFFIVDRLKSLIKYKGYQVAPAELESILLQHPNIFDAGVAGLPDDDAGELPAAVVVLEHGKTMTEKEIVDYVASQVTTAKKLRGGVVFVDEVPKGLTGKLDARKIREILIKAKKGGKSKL

Q: What does the source list for `CCCCCCCCC=C(CCCCCCCC(=O)O)[N+](=O)[O-]` [18.9.9, 9-nitro-octadec-9-enoic acid]?
A: induction of Nrf-2 (protein levels / signaling) (Nrf-2): strongest effects; inhibition at 1 µM ([1]; 1 µM): > 50%; inhibition of recombinant firefly luciferase ([1]; 10 µM): complete inhibition

Q: How did the “induction of Nrf-2 (protein levels / signaling)” value (Nrf-2) turn out when `CCCCCCCC/C=C\CCCCCCCC(=O)O` [OA, oleic acid, reference compound] was run?
A: did not affect

Q: And the “inhibition of recombinant sEH” value (sEH)?
A: strong suppressive effect
